# Data taken from patent US8791132B2, “Compounds and methods for treatment of hypertension” (Medivation Technologies, Inc., priority 2011, dated 2014).
# Where two headings read alike, the source gives them in different places.
# Columns and labels:
# [1] = target: T1, human recombinant adrenergic α2A receptor (Homo sapiens, UniProt P08913); assay: Radioligand binding, adrenergic α2A ([3H]MK-912); details: for Percentage inhibition of ligand binding, Adrenergic α2A / Percentage inhibition of ligand binding, Adrenergic α2A (0.1 μM): 0.1 µM
# T1 construct: expressed in transfected cells; host or cells: insect Sf9 cells
# T1 sequence (P08913 1-465): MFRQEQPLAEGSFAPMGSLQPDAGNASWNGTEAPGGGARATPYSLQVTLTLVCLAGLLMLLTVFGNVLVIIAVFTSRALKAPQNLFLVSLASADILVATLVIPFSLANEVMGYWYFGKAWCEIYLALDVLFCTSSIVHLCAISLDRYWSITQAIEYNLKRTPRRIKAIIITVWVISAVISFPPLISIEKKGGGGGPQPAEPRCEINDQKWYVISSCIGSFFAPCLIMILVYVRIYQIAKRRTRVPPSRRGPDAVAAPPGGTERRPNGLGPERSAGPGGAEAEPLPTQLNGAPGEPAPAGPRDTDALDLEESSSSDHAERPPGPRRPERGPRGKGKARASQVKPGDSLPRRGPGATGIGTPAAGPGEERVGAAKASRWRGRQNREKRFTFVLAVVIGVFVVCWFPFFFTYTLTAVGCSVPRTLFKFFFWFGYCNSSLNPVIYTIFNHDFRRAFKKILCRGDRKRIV
# Procedure, shortened: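 In 50 mM Tris-HCl (pH 7.4) containing 12.5 mM MgCl2 and 2 mM EDTA, Sf9-expressed receptor was exposed to test compound plus 1 nM [3H]MK-912 at 25 °C for 60 min. Specific binding, corrected using 10 μM WB-4101, was quantified by filtration and counting and expressed as percent inhibition.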
# [2] = target: T2, human recombinant adrenergic α2B receptor (Homo sapiens, UniProt P18089); assay: Radioligand binding, adrenergic α2B ([3H]Rauwolscine)
# T2 construct: expressed in transfected cells; host or cells: CHO-K1
# T2 sequence (P18089 1-450): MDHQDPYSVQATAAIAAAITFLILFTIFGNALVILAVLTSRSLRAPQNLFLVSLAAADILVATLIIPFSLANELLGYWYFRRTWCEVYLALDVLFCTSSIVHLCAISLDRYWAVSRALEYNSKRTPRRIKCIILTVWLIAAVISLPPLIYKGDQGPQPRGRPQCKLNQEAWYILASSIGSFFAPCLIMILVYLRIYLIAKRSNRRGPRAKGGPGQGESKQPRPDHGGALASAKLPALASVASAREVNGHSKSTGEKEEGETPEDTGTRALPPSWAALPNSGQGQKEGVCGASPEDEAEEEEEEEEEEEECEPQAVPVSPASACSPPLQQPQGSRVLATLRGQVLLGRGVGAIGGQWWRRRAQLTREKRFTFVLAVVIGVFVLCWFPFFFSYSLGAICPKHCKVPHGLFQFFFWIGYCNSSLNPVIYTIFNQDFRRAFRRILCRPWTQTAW
# Procedure, shortened: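 Readout: percent inhibition of specific [3H]Rauwolscine binding, measured by filtration and counting. Conditions: CHO-K1 cell-expressed receptor, 2.5 nM radioligand, 60 min, 25° C, Tris-HCl pH 7.4 buffer with MgCl2, EDTA, BSA. Non-specific binding: 10 μM Prazosin.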
# [3] = target: T3, rat adrenergic α1B receptor (Rattus norvegicus, UniProt P15823); assay: Radioligand binding, adrenergic α1B ([3H]Prazosin); details: for Percentage inhibition of ligand binding, Adrenergic α1B / Percentage inhibition of ligand binding, Adrenergic α1B (0.1 μM): compound at 0.1 μM, 0.1 µM; for Percentage inhibition of ligand binding, Adrenergic α1B: repeat assays, each datapoint shown
# T3 construct: rat adrenergic α1B receptor obtained from Wistar Rat liver; from tissue; host or cells: Wistar rat liver
# T3 sequence (P15823 1-515): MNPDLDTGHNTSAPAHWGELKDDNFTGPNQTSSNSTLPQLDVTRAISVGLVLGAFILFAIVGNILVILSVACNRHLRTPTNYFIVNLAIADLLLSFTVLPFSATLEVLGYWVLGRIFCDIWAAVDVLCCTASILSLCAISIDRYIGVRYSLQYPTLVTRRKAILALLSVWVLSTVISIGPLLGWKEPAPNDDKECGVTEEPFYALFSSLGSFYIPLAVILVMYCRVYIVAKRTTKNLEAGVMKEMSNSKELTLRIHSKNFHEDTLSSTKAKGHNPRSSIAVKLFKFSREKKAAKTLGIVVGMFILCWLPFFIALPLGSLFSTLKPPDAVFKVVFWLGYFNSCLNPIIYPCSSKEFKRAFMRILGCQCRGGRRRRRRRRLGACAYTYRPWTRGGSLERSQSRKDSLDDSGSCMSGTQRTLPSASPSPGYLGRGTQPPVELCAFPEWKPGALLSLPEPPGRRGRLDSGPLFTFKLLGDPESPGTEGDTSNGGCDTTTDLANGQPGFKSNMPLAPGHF
# Procedure, shortened: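 Incubation ran 60 min at 25 °C in Tris-HCl buffer (50 mM, pH 7.4, 0.5 mM EDTA) with Wistar rat liver α1B receptor. 10 μM phentolamine set non-specific binding.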
# [4] = compound at 0.1 μM, [3H]MK-912, repeat assays, each datapoint shown
# [5] = compound at 0.03 μM, [3H]Rauwolscine, repeat assays, each datapoint shown, 0.03 µM
# [6] = read-out: Percentage inhibition of ligand binding, Adrenergic α2A (0.1 μM), compound at 0.1 μM, [3H]MK-912, repeat datapoints each shown
# [7] = read-out: Percentage inhibition of ligand binding, Adrenergic α2B (0.03 μM), compound at 0.03 μM, [3H]Rauwolscine, repeat datapoints each shown
# [8] = read-out: Percentage inhibition of ligand binding, Adrenergic α1B (0.1 μM), compound at 0.1 μM, [3H]Prazosin, repeat datapoints each shown
# [9] = 0.1 μM compound, read-out: Percentage inhibition of ligand binding, Adrenergic α2A
# [10] = 0.03 μM compound, read-out: Percentage inhibition of ligand binding, Adrenergic α2B
# [11] = 0.1 μM compound, read-out: Percentage inhibition of ligand binding, Adrenergic α1B
# [12] = compound at 0.03 μM, [3H]Rauwolscine, repeat datapoints each shown, 0.03 µM
# [13] = compound at 0.1 μM, [3H]MK-912, repeat datapoints each shown
# [14] = [3H]Prazosin, repeat datapoints each shown
structure (smiles),measurement,setting,value
"Cc1cnc2c(c1)c1c(n2CC(O)c2ccncc2)CCNC1 (single isomer, unassigned) [58a, 2-(3-methyl-5,6,7,8-tetrahydro-1,6,9-triaza-fluoren-9-yl)-1-pyridin-4-yl-ethanol]","Percentage inhibition of ligand binding, Adrenergic α2A",[1]; [4],9%
same,"Percentage inhibition of ligand binding, Adrenergic α2B",[2]; [5],5%
same,"Percentage inhibition of ligand binding, Adrenergic α1B",[3]; [3H]Prazosin,7%
Cc1cnc2c(c1)c1c(n2CC(N)c2ccncc2)CCNC1 (stereo not drawn) [compound 158],inhibition at 0.1 µM,[1]; [6],-1%
same,inhibition at 0.03 µM,[2]; [7],43%
same,inhibition at 0.1 µM,[3]; [8],8%
"Cc1ccc2c(c1)c1c(n2CC(C)(O)c2ccc(F)cc2)CCN(C)C1 (single isomer, unassigned) [90b]","Percentage inhibition of ligand binding, Adrenergic α2A",[1]; [4],82%
same,"Percentage inhibition of ligand binding, Adrenergic α2B","[2]; compound at 0.03 μM, [3H]Rauwolscine, repeat assays, each datapoint shown",97%
same,"Percentage inhibition of ligand binding, Adrenergic α1B",[3]; [3H]Prazosin,81%
CN1CCc2c(c3cc(Cl)ccc3n2CC(O)(c2ccc(F)cc2)C2CC2)C1 (stereo not drawn) [compound 223],inhibition at 0.1 µM,[1]; [6],69%
same,inhibition at 0.03 µM,[2]; [7],47%
same,inhibition at 0.1 µM,[3]; [8],21%
"Cc1ccc2c(c1)c1c(n2CC(C)(O)c2ccc(C(=O)O)nc2)CCN(C)C1 (stereo not drawn) [compound 169, 5-(1-(1,2,3,4-tetrahydro-2,8-dimethylpyrido[4,3-b]indol-5-yl)-2-hydroxypropan-2-yl)pyridine-2-carboxylic acid]",inhibition at 0.1 µM,[1]; [6],15%
same,inhibition at 0.03 µM,[2]; [7],20%
same,inhibition at 0.1 µM,[3]; [8],2%
Cc1ccc(CCn2c3c(c4c(Cl)ccc(Br)c42)CN(C)CC3)cn1 [II-252],inhibition at 0.1 µM,[1]; [6],91%
same,inhibition at 0.03 µM,[2]; [7],1%
same,inhibition at 0.1 µM,[3]; [8],-1%
CCC1c2c(c3cc(C)ccc3n2CC(O)c2ccncc2)CCN1C (stereo not drawn) [II-74],inhibition at 0.1 µM,[1]; [9],10%
same,inhibition at 0.03 µM,[2]; [10],18%
same,inhibition at 0.1 µM,[3]; [11],11%
"CN1CCc2c(c3cc(Cl)ccc3n2CC(O)c2ccncc2)C1 (single isomer, unassigned) [4b]","Percentage inhibition of ligand binding, Adrenergic α2A",[1]; [4],7%
same,"Percentage inhibition of ligand binding, Adrenergic α2B",[2]; [5],46%
same,"Percentage inhibition of ligand binding, Adrenergic α1B",[3]; [3H]Prazosin,58%
"Cc1ccc2c(c1)c1c(n2CC(c2ccncc2)N(C)C)CCN(C)C1 (single isomer, unassigned) [150a]",inhibition at 0.1 µM,[1]; [6],16%
same,"Percentage inhibition of ligand binding, Adrenergic α2B (0.03 μM)",[2]; [12],96%
same,Ki,[2]; read-out: Ki α2B,1.57 nM
same,inhibition at 0.03 µM,[2]; [7],88%
same,inhibition at 0.1 µM,"[2]; read-out: Percentage inhibition of ligand binding, Adrenergic α2B (0.1 μM), compound at 0.1 μM, [3H]Rauwolscine, repeat datapoints each shown",100%
same,inhibition at 0.1 µM,[3]; [8],16%
"CC(O)(Cn1c2c(c3cc(Cl)ccc31)CN(C1CCC1)CC2)c1cccnc1 (single isomer, unassigned) [II-118b]","Percentage inhibition of ligand binding, Adrenergic α2A (0.1 μM)",[1]; [13],5%
same,"Percentage inhibition of ligand binding, Adrenergic α2B (0.03 μM)",[2]; [12],−3%
same,"Percentage inhibition of ligand binding, Adrenergic α1B (0.1 μM)",[3]; [14],11%
Cc1cnc2c(c1)c1c(n2CCc2ccc(F)cc2)CCN2CCCC12 (stereo not drawn) [compound 336],inhibition at 0.1 µM,[1]; [9],66%
same,inhibition at 0.03 µM,[2]; [10],104%
same,inhibition at 0.1 µM,[3]; [11],98%
Cc1ccc2c(c1)c1c(n2C(C)C(O)c2ccncc2)CCN(C)C1 (stereo not drawn) [127b],inhibition at 0.1 µM,[1]; [6],4%
same,inhibition at 0.03 µM,[2]; [7],1%
same,inhibition at 0.1 µM,[3]; [8],13%
"Cc1ccc2c(c1)c1c(n2CC(C)(OC(=O)C(C)C)c2cccnc2)CCN(C)C1 (single isomer, unassigned) [146a]","Percentage inhibition of ligand binding, Adrenergic α2A (0.1 μM)",[1]; [13],−1%
same,"Percentage inhibition of ligand binding, Adrenergic α2B (0.03 μM)",[2]; [12],37%
same,"Percentage inhibition of ligand binding, Adrenergic α1B (0.1 μM)",[3]; [14],41%
"Cc1ccc2c(c1)c1c(n2CC(O)c2ccc(F)cc2)CN(C)CC1 (single isomer, unassigned) [18a, 2-(2,6-dimethyl-1,2,3,4-tetrahydro-β-carbolin-9-yl)-1-(4-fluoro-phenyl)-ethanol]",inhibition at 0.1 µM,"[1]; compound at 0.1 μM, [3H]MK-912, repeat assays, each datapoint shown, read-out: Percentage inhibition of ligand binding, Adrenergic α2A",50%
same,inhibition at 0.03 µM,"[2]; compound at 0.03 μM, [3H]Rauwolscine, repeat assays, each datapoint shown, read-out: Percentage inhibition of ligand binding, Adrenergic α2B",54%
same,"Percentage inhibition of ligand binding, Adrenergic α1B",[3]; [3H]Prazosin,55%
"Cc1cnc2c(c1)c1c(n2CC(O)c2ccc(C#N)nc2)CCN(C)C1 (single isomer, unassigned) [II-114a, 5-[2-(3,6-dimethyl-5,6,7,8-tetrahydro-1,6,9-triaza-fluoren-9-yl)-1-hydroxy-ethyl]-pyridine-2-carbonitrile]","Percentage inhibition of ligand binding, Adrenergic α2A (0.1 μM)",[1]; [13],12%
same,inhibition at 0.03 µM,[2]; [7],40%
same,"Percentage inhibition of ligand binding, Adrenergic α1B (0.1 μM)",[3]; [14],45%
"COc1ccc(C(O)Cn2c3c(c4cc(C)ccc42)CN(C)CC3)cn1 (single isomer, unassigned) [51b, 2-(2,8-dimethyl-1,2,3,4-tetrahydro-pyrido[4,3-b]indol-5-yl)-1-(6-methoxy-pyridin-3-yl)-ethanol]","Percentage inhibition of ligand binding, Adrenergic α2A",[1]; [4],26%
same,"Percentage inhibition of ligand binding, Adrenergic α2B",[2]; [5],90%
same,"Percentage inhibition of ligand binding, Adrenergic α1B",[3]; [3H]Prazosin,36%
"OC(Cn1c2c(c3cccnc31)CN1CCCC1C2)c1ccncc1 (single isomer, unassigned) [37c]","Percentage inhibition of ligand binding, Adrenergic α2A",[1]; [4],6%
same,"Percentage inhibition of ligand binding, Adrenergic α2B",[2]; [5],0%
same,"Percentage inhibition of ligand binding, Adrenergic α1B",[3]; [3H]Prazosin,2%
"Cc1cnc2c(c1)c1c(n2CC(N)c2ccc(C#N)cc2)CCN(C)C1 (single isomer, unassigned) [159b]","Percentage inhibition of ligand binding, Adrenergic α2A (0.1 μM)",[1]; [13],−12%
same,"Percentage inhibition of ligand binding, Adrenergic α2B (0.03 μM)",[2]; [12],52%
same,"Percentage inhibition of ligand binding, Adrenergic α1B (0.1 μM)",[3]; [14],53%
"Cc1ccc2c(c1)c1c(n2CC(CCO)c2ccncc2)CCN(C)C1 (stereo not drawn) [II-224, 4-(2,8-dimethyl-1,2,3,4-tetrahydro-pyrido[4,3-b]indol-5-yl)-3-pyridin-4-yl-butan-1-ol]",inhibition at 0.1 µM,[1]; [6],22%
same,inhibition at 0.03 µM,[2]; [7],68%
same,inhibition at 0.1 µM,[3]; [8],13%
